From patent publication US20140343000A1 (priority 2011, published 2014)
Structures can show the parent of a compound that is named as a salt.

Tested on: recombinant NL4-3 virus (Renilla luciferase in nef, Gag P373S; NLRluc) in MT-2 cells
Test: whole plant or invertebrate
Assay type: cell-based, HIV
Settings: Renilla, NL43, luciferase activity in cells infected for 4-5 days with NLRluc recombinants, serial dilutions of inhibitor; class symbols (key in Table 1); read-out: EC50
Summary of the method: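 MT-2 cells infected 4–5 days with NL4-3 carrying Renilla luciferase in nef and Gag P373S, with serial dilutions of inhibitor present. Antiviral activity quantified by luciferase activity, using Dual Luciferase reagents premixed with lysis buffer and read immediately.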

`C=C(C)[C@@H]1CC[C@]2(Nc3nc(CC)cs3)CC[C@]3(C)[C@H](CC[C@@H]4[C@@]5(C)CC=C(c6ccc(C(=O)O)cc6)C(C)(C)[C@@H]5CC[C@]43C)[C@@H]12` [Example 184B, 4-((1R,3aS,5aR,5bR,7aR,11aS,11bR,13aR,13bR)-3a-(4-ethylthiazol-2-ylamino)-5a,5b,8,8,11a-pentamethyl-1-(prop-1-en-2-yl)-2,3,3a,4,5,5a,5b,6,7,7a,8,11,11a,11b,12,13,13a,13b-octadecahydro-1H-cyclopenta[a]chrysen-9-yl)benzoic acid] was tested. Which EC50 did it give?
Its EC50 is less than 100 nM.

How did the EC50 turn out when `C=C(C)[C@@H]1CC[C@]2(Nc3nc(C(C)(C)C)cs3)CC[C@]3(C)[C@H](CC[C@@H]4[C@@]5(C)CC=C(c6ccc(C(=O)O)cc6)C(C)(C)[C@@H]5CC[C@]43C)[C@@H]12` [Example 185, 4-((1R,3aS,5aR,5bR,7aR,11aS,11bR,13aR,13bR)-3a-(4-tert-butylthiazol-2-ylamino)-5a,5b,8,8,11a-pentamethyl-1-(prop-1-en-2-yl)-2,3,3a,4,5,5a,5b,6,7,7a,8,11,11a,11b,12,13,13a,13b-octadecahydro-1H-cyclopenta[a]chrysen-9-yl)benzoic acid] was run?
The EC50 was greater than 100 nM.

With `C=C(C)[C@@H]1CC[C@]2(Nc3nc(-c4ccccn4)cs3)CC[C@]3(C)[C@H](CC[C@@H]4[C@@]5(C)CC=C(c6ccc(C(=O)O)cc6)C(C)(C)[C@@H]5CC[C@]43C)[C@@H]12` [Example 187, 4-((1R,3aS,5aR,5bR,7aR,11aS,11bR,13aR,13bR)-5a,5b,8,8,11a-pentamethyl-1-(prop-1-en-2-yl)-3a-(4-(pyridin-2-yl)thiazol-2-ylamino)-2,3,3a,4,5,5a,5b,6,7,7a,8,11,11a,11b,12,13,13a,13b-octadecahydro-1H-cyclopenta[a]chrysen-9-yl)benzoic acid, TFA] as the compound, how does the EC50 read?
The EC50 was less than 100 nM.

With `C=C(C)[C@@H]1CC[C@]2(NCCNc3cccnc3)CC[C@]3(C)[C@H](CC[C@@H]4[C@@]5(C)CC=C(c6ccc(C(=O)O)cc6)C(C)(C)[C@@H]5CC[C@]43C)[C@@H]12` [Example 189, 4-((1R,3aS,5aR,5bR,7aR,11aS,11bR,13aR,13bR)-5a,5b,8,8,11a-pentamethyl-1-(prop-1-en-2-yl)-3a-(2-(pyridin-3-ylamino)ethylamino)-2,3,3a,4,5,5a,5b,6,7,7a,8,11,11a,11b,12,13,13a,13b-octadecahydro-1H-cyclopenta[a]chrysen-9-yl)benzoic acid] as the compound, how does the EC50 read?
The EC50 was less than 100 nM.

For `C=C(C)[C@@H]1CC[C@]2(NCCNc3ccncc3)CC[C@]3(C)[C@H](CC[C@@H]4[C@@]5(C)CC=C(c6ccc(C(=O)O)cc6)C(C)(C)[C@@H]5CC[C@]43C)[C@@H]12` [Example 190, 4-((1R,3aS,5aR,5bR,7aR,11aS,11bR,13aR,13bR)-5a,5b,8,8,11a-pentamethyl-1-(prop-1-en-2-yl)-3a-(2-(pyridin-4-ylamino)ethylamino)-2,3,3a,4,5,5a,5b,6,7,7a,8,11,11a,11b,12,13,13a,13b-octadecahydro-1H-cyclopenta[a]chrysen-9-yl)benzoic acid], which EC50 is on record?
The EC50 was less than 100 nM.

Which EC50 does the source give for `C=C(C)[C@@H]1CC[C@]2(NCCNc3nccn3C)CC[C@]3(C)[C@H](CC[C@@H]4[C@@]5(C)CC=C(c6ccc(C(=O)O)cc6)C(C)(C)[C@@H]5CC[C@]43C)[C@@H]12` [Example 191, 4-((1R,3aS,5aR,5bR,7aR,11aS,11bR,13aR,13bR)-5a,5b,8,8,11a-pentamethyl-3a-(2-(1-methyl-1H-imidazol-2-ylamino)ethylamino)-1-(prop-1-en-2-yl)-2,3,3a,4,5,5a,5b,6,7,7a,8,11,11a,11b,12,13,13a,13b-octadecahydro-1H-cyclopenta[a]chrysen-9-yl)benzoic acid] here?
Its EC50 is less than 100 nM.

For `C=C(C)[C@@H]1CC[C@]2(NCCNc3ccccc3)CC[C@]3(C)[C@H](CC[C@@H]4[C@@]5(C)CC=C(c6ccc(C(=O)O)cc6)C(C)(C)[C@@H]5CC[C@]43C)[C@@H]12` [Example 192, 4-((1R,3aS,5aR,5bR,7aR,11aS,11bR,13aR,13bR)-5a,5b,8,8,11a-pentamethyl-3a-(2-(phenylamino)ethylamino)-1-(prop-1-en-2-yl)-2,3,3a,4,5,5a,5b,6,7,7a,8,11,11a,11b,12,13,13a,13b-octadecahydro-1H-cyclopenta[a]chrysen-9-yl)benzoic acid], which EC50 is on record?
The EC50 was less than 100 nM.

With `C=C(C)[C@@H]1CC[C@]2(NCCNc3ccc(C)nn3)CC[C@]3(C)[C@H](CC[C@@H]4[C@@]5(C)CC=C(c6ccc(C(=O)O)cc6)C(C)(C)[C@@H]5CC[C@]43C)[C@@H]12` [Example 194, 4-((1R,3aS,5aR,5bR,7aR,11aS,11bR,13aR,13bR)-5a,5b,8,8,11a-pentamethyl-3a-(2-(6-methylpyridazin-3-ylamino)ethylamino)-1-(prop-1-en-2-yl)-2,3,3a,4,5,5a,5b,6,7,7a,8,11,11a,11b,12,13,13a,13b-octadecahydro-1H-cyclopenta[a]chrysen-9-yl)benzoic acid] as the compound, how does the EC50 read?
Its EC50 is less than 100 nM.

Which EC50 does the source give for `C=C(C)[C@@H]1CC[C@]2(NCCNC(C)=O)CC[C@]3(C)[C@H](CC[C@@H]4[C@@]5(C)CC=C(c6ccc(C(=O)O)cc6)C(C)(C)[C@@H]5CC[C@]43C)[C@@H]12` [Example 195, 4-((1R,3aS,5aR,5bR,7aR,11aS,11bR,13aR,13bR)-3a-(2-acetamidoethylamino)-5a,5b,8,8,11a-pentamethyl-1-(prop-1-en-2-yl)-2,3,3a,4,5,5a,5b,6,7,7a,8,11,11a,11b,12,13,13a,13b-octadecahydro-1H-cyclopenta[a]chrysen-9-yl)benzoic acid] here?
Its EC50 is less than 100 nM.

Which EC50 does the source give for `C=C(C)[C@@H]1CC[C@]2(NCCNc3ccc(SC)cn3)CC[C@]3(C)[C@H](CC[C@@H]4[C@@]5(C)CC=C(c6ccc(C(=O)O)cc6)C(C)(C)[C@@H]5CC[C@]43C)[C@@H]12` [Example 196, 4-((1R,3aS,5aR,5bR,7aR,11aS,11bR,13aR,13bR)-5a,5b,8,8,11a-pentamethyl-3a-(2-(5-(methylthio)pyridin-2-ylamino)ethylamino)-1-(prop-1-en-2-yl)-2,3,3a,4,5,5a,5b,6,7,7a,8,11,11a,11b,12,13,13a,13b-octadecahydro-1H-cyclopenta[a]chrysen-9-yl)benzoic acid] here?
The EC50 was less than 100 nM.

Same assay, conditions: Renilla, NL43, luciferase activity in cells infected for 4-5 days with NLRluc recombinants, serial dilutions of inhibitor; numeric values; read-out: EC50

`C=C(C)[C@@H]1CC[C@]2(NCCNc3ccccn3)CC[C@]3(C)[C@H](CC[C@@H]4[C@@]5(C)CC=C(c6ccc(C(=O)O)cc6)C(C)(C)[C@@H]5CC[C@]43C)[C@@H]12` [Example 188, 4-((1R,3aS,5aR,5bR,7aR,11aS,11bR,13aR,13bR)-5a,5b,8,8,11a-pentamethyl-1-(prop-1-en-2-yl)-3a-(2-(pyridin-2-ylamino)ethylamino)-2,3,3a,4,5,5a,5b,6,7,7a,8,11,11a,11b,12,13,13a,13b-octadecahydro-1H-cyclopenta[a]chrysen-9-yl)benzoic acid] was tested. Which EC50 did it give?
Its EC50 is 1 nM.

For `C=C(C)[C@@H]1CC[C@]2(NCCNc3nccs3)CC[C@]3(C)[C@H](CC[C@@H]4[C@@]5(C)CC=C(c6ccc(C(=O)O)cc6)C(C)(C)[C@@H]5CC[C@]43C)[C@@H]12` [Example 193, 4-((1R,3aS,5aR,5bR,7aR,11aS,11bR,13aR,13bR)-5a,5b,8,8,11a-pentamethyl-1-(prop-1-en-2-yl)-3a-(2-(thiazol-2-ylamino)ethylamino)-2,3,3a,4,5,5a,5b,6,7,7a,8,11,11a,11b,12,13,13a,13b-octadecahydro-1H-cyclopenta[a]chrysen-9-yl)benzoic acid], which EC50 is on record?
The EC50 was 20 nM.
